Data reported in patent US9695155B2, “Herbicidal substituted pyrimidinyloxy benzene compounds” (E. I. DU PONT DE NEMOURS AND COMPANY, priority 2013, dated 2017).

Key:
velvetleaf [1] = assay: Test A preemergence; type: in vivo, Abutilon theophrasti
Description: (§1) Seeds of plant species selected from barnyardgrass (Echinochloa crus-galli), kochia (Kochia scoparia), ragweed (common ragweed, Ambrosia elatior), Italian ryegrass (Lolium multiflorum), large (Lg) crabgrass (Digitaria sanguinalis), giant foxtail (Setaria faberii), morningglory (Ipomoea spp.), pigweed (Amaranthus retroflexus), velvetleaf (Abutilon theophrasti), wheat (Triticum aestivum), and corn (Zea mays) were planted into a blend of loam soil and sand and treated preemergence with a directed soil spray using test chemicals formulated in a non-phytotoxic solvent mixture which included a surfactant.
(§2) At the same time, plants selected from these crop and weed species and also blackgrass (Alopecurus myosuroides), and galium (catchweed bedstraw, Galium aparine) were planted in pots containing the same blend of loam soil and sand and treated with postemergence applications of test chemicals formulated in the same manner. Plants ranged in height from 2 to 10 cm and were in the one- to two-leaf stage for the postemergence treatment. Treated plants and untreated controls were maintained in a greenhouse for approximately 10 days, after which time all treated plants were compared to untreated controls and visually evaluated for injury. Plant response ratings, summarized in Table A, are based on a 0 to 100 scale where 0 is no effect and 100 is complete control. A dash (-) response means no test result.

large (Lg) crabgrass [2] = assay: Test A postemergence; type: in vivo, Digitaria sanguinalis
Description: as §1, §2

wheat [3] = assay: Test A postemergence; type: in vivo, Triticum aestivum
Description: as §1, §2

corn [4] = assay: Test A postemergence; type: in vivo, Zea mays
Description: as §1, §2

morningglory [5] = assay: Test A postemergence; type: in vivo, Ipomoea spp.
Description: as §1, §2

large (Lg) crabgrass [6] = assay: Test A preemergence; type: in vivo, Digitaria sanguinalis
Description: as §1, §2

pigweed [7] = assay: Test A preemergence; type: in vivo, Amaranthus retroflexus
Description: as §1, §2

wheat [8] = assay: Test A preemergence; type: in vivo, Triticum aestivum
Description: as §1, §2

barnyardgrass [9] = assay: Test A preemergence; type: in vivo, Echinochloa crus-galli
Description: as §1, §2

corn [10] = assay: Test A preemergence; type: in vivo, Zea mays
Description: as §1, §2

barnyardgrass [11] = assay: Test A postemergence; type: in vivo, Echinochloa crus-galli
Description: as §1, §2

velvetleaf [12] = assay: Test A postemergence; type: in vivo, Abutilon theophrasti
Description: as §1, §2

giant foxtail [13] = assay: Test A postemergence; type: in vivo, Setaria faberii
Description: as §1, §2

morningglory [14] = assay: Test A preemergence; type: in vivo, Ipomoea spp.
Description: as §1, §2

giant foxtail [15] = assay: Test A preemergence; type: in vivo, Setaria faberii
Description: as §1, §2

pigweed [16] = assay: Test A postemergence; type: in vivo, Amaranthus retroflexus
Description: as §1, §2

[17] = 1000 g ai/ha, 0 to 100 scale, 0 no effect, 100 complete control, approx. 10 days
[18] = 1000 g ai/ha, 0 to 100 scale, 0 no effect, 100 complete control
[19] = 500 g ai/ha, 0 to 100 scale where 0 is no effect and 100 is complete control

Row | Compound | Velvetleaf plant response rating (velvetleaf [1]; [17]) | Plant response rating, Crabgrass, Large (large (Lg) crabgrass [2]; [18]) | Plant response rating, Wheat (wheat [3]; [18]) | Plant response rating, Corn (corn [4]; [18]) | Plant response rating, Morningglory (morningglory [5]; [18]) | Pigweed plant response rating (pigweed [7]; [17]) | Wheat plant response rating (wheat [8]; [17]) | Plant response rating, Barnyardgrass (barnyardgrass [11]; [18]) | Plant response rating, Velvetleaf (velvetleaf [12]; [18]) | Plant response rating, Foxtail, Giant (giant foxtail [13]; [18]) | Morningglory plant response rating (morningglory [14]; [17]) | Foxtail, Giant plant response rating (giant foxtail [15]; [17]) | Plant response rating, Pigweed (pigweed [16]; [18]) | Crabgrass, Large plant response rating (large (Lg) crabgrass [6]; [17]) | Barnyardgrass plant response rating (barnyardgrass [9]; [17]) | Corn plant response rating (corn [10]; [17]) | also measured
1 | Clc1cnc(Oc2ccccc2-n2cccn2)nc1 [Compound 12, 5-chloro-2-[2-(1H-pyrazol-1-yl)phenoxy]pyrimidine] | – | – | – | – | – | – | – | – | – | – | – | – | – | – | – | – | pest or weed control at 1000 g/ha (velvetleaf [1]; Abutilon theophrasti, pre-emergence, 240 h, 1000 g ai/ha, 0 to 100 scale, 0 no effect, 100 complete control, approx. 10 days, read-out: Velvetleaf plant response rating): 100%; pest or weed control at 1000 g/ha (large (Lg) crabgrass [2]; Digitaria sanguinalis, post-emergence, 240 h, 1000 g ai/ha, 0 to 100 scale, 0 no effect, 100 complete control, read-out: Plant response rating Crabgrass, Large): 80%; plant injury at 1000 g/ha (wheat [3]; Triticum aestivum, post-emergence, 240 h, 1000 g ai/ha, 0 to 100 scale, 0 no effect, 100 complete control, read-out: Plant response rating Wheat): 20%; plant injury at 1000 g/ha (corn [4]; Zea mays, post-emergence, 240 h, 1000 g ai/ha, 0 to 100 scale, 0 no effect, 100 complete control, read-out: Plant response rating Corn): 30%; pest or weed control at 1000 g/ha (morningglory [5]; Ipomoea, post-emergence, 240 h, 1000 g ai/ha, 0 to 100 scale, 0 no effect, 100 complete control, read-out: Plant response rating Morningglory): 90%; pest or weed control at 1000 g/ha (large (Lg) crabgrass [6]; Digitaria sanguinalis, pre-emergence, 240 h, 1000 g ai/ha, 0 to 100 scale, 0 no effect, 100 complete control, read-out: Plant response rating, Crabgrass, Large): 100%; pest or weed control at 1000 g/ha (pigweed [7]; Amaranthus retroflexus, pre-emergence, 240 h, 1000 g ai/ha, 0 to 100 scale, 0 no effect, 100 complete control, approx. 10 days, read-out: Pigweed plant response rating): 100%; plant injury at 1000 g/ha (wheat [8]; Triticum aestivum, pre-emergence, 240 h, 1000 g ai/ha, 0 to 100 scale, 0 no effect, 100 complete control, approx. 10 days, read-out: Wheat plant response rating): 20%; pest or weed control at 1000 g/ha (barnyardgrass [9]; Echinochloa crus-galli, pre-emergence, 240 h, 1000 g ai/ha, 0 to 100 scale, 0 no effect, 100 complete control, read-out: Plant response rating, Barnyardgrass): 100%; Corn plant response rating (crop injury, 0 = no effect, 100 = complete kill) at 1000 g/ha (corn [10]; Zea mays, pre-emergence, 240 h, 1000 g ai/ha, 0 to 100 scale, 0 no effect, 100 complete control): 0%; pest or weed control at 1000 g/ha (barnyardgrass [11]; Echinochloa crus-galli, post-emergence, 240 h, 1000 g ai/ha, 0 to 100 scale, 0 no effect, 100 complete control, read-out: Plant response rating Barnyardgrass): 90%; pest or weed control at 1000 g/ha (velvetleaf [12]; Abutilon theophrasti, post-emergence, 240 h, 1000 g ai/ha, 0 to 100 scale, 0 no effect, 100 complete control, read-out: Plant response rating Velvetleaf): 100%; pest or weed control at 1000 g/ha (giant foxtail [13]; Setaria faberi, post-emergence, 240 h, 1000 g ai/ha, 0 to 100 scale, 0 no effect, 100 complete control, read-out: Plant response rating Foxtail, Giant): 80%; pest or weed control at 1000 g/ha (morningglory [14]; Ipomoea, pre-emergence, 240 h, 1000 g ai/ha, 0 to 100 scale, 0 no effect, 100 complete control, approx. 10 days, read-out: Morningglory plant response rating): 0%; pest or weed control at 1000 g/ha (giant foxtail [15]; Setaria faberi, pre-emergence, 240 h, 1000 g ai/ha, 0 to 100 scale, 0 no effect, 100 complete control, approx. 10 days, read-out: Foxtail, Giant plant response rating): 100%; pest or weed control at 1000 g/ha (pigweed [16]; Amaranthus retroflexus, post-emergence, 240 h, 1000 g ai/ha, 0 to 100 scale, 0 no effect, 100 complete control, read-out: Plant response rating Pigweed): 100%
2 | CC(=O)Oc1cccc(Oc2ncc(Cl)cn2)c1-n1cc(Br)cn1 [Compound 67] | 10 | 10 | 0 | 10 | 10 | 100 | 0 | 20 | 70 | 10 | 0 | 10 | 100 | – | – | – | Plant response rating, Crabgrass, Large (large (Lg) crabgrass [6]; [18]): 20; Plant response rating, Barnyardgrass (barnyardgrass [9]; [18]): 0; Plant response rating, Corn (corn [10]; [18]): 0
3 | N#CCOc1cccc(Oc2ncc(Cl)cn2)c1-n1cc(Br)cn1 [Compound 70] | 70 | 60 | 0 | 10 | 20 | 90 | 0 | 80 | 70 | 60 | 10 | 60 | 70 | – | – | – | Plant response rating, Crabgrass, Large (large (Lg) crabgrass [6]; [18]): 90; Plant response rating, Barnyardgrass (barnyardgrass [9]; [18]): 50; Plant response rating, Corn (corn [10]; [18]): 0
4 | Fc1cccc(Oc2ncc(Cl)cn2)c1-n1cccn1 [Compound 176] | – | – | – | – | – | – | – | – | – | – | – | – | – | – | – | – | Velvetleaf plant response rating (velvetleaf [1]; [19]): 90; Plant response rating, Crabgrass, Large (large (Lg) crabgrass [2]; [19]): 40; Plant response rating, Wheat (wheat [3]; [19]): 10; Plant response rating, Corn (corn [4]; [19]): 20; Plant response rating, Morningglory (morningglory [5]; [19]): 80; Crabgrass, Large plant response rating (large (Lg) crabgrass [6]; [19]): 100; Pigweed plant response rating (pigweed [7]; [19]): 100; Wheat plant response rating (wheat [8]; [19]): 0; Barnyardgrass plant response rating (barnyardgrass [9]; [19]): 60; Corn plant response rating (corn [10]; [19]): 0; Plant response rating, Barnyardgrass (barnyardgrass [11]; [19]): 40; Plant response rating, Velvetleaf (velvetleaf [12]; [19]): 90; Plant response rating, Foxtail, Giant (giant foxtail [13]; [19]): 50; Morningglory plant response rating (morningglory [14]; [19]): 0; Foxtail, Giant plant response rating (giant foxtail [15]; [19]): 100; Plant response rating, Pigweed (pigweed [16]; [19]): 100
5 | COc1ccc(I)c(-n2cc(Br)cn2)c1Oc1ncc(Cl)cn1 [Compound 207] | 30 | 40 | 0 | 0 | 30 | 0 | 0 | 10 | 30 | 60 | 0 | 50 | 70 | 50 | 0 | 0 | –
6 | Oc1cccc(Oc2ncc(Cl)cn2)c1-n1cc(Cl)cn1 [Compound 229] | 0 | 0 | 0 | 0 | 0 | 100 | 0 | 0 | 0 | 0 | 0 | 0 | 60 | 10 | 0 | 0 | –
7 | Fc1cc(F)cc(-c2cn(-c3c(Br)cccc3Oc3ncc(Cl)cn3)nn2)c1 [Compound 303] | 0 | 20 | 0 | 10 | 30 | 80 | 0 | 20 | 70 | 20 | 0 | 50 | 90 | 60 | 0 | 0 | –
